Measurements from ChEMBL document CHEMBL1201862, “PubChem BioAssay data set” (2004).
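Growth conditions: 96-well plates. Treatment: test compound, 48 hours, 5 concentrations. Analysis: linear interpolation between bracketing concentrations; unreached endpoints set to highest concentration. GI50 is the concentration that inhibits growth by half.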 Activity calls are given as the source filed them. No stated cut-off is given here; in the data, active = GI50 up to about 1.1 µM and inactive = higher.

How the values were obtained:
Assay in all cases: NCI tumour cell line growth inhibition, 48 h
SF-539 = system: SF-539
786-0 = system: 786-0
DU-145 = system: DU-145
OVCAR-4 = system: OVCAR-4
MCF7 = system: MCF7
HOP-92 = system: HOP-92
CAKI-1 = system: CAKI-1
UACC-62 = system: UACC-62
HCC 2998 = system: HCC 2998
A549 = system: A549
UACC-257 = system: UACC-257
CCRF-CEM = system: CCRF-CEM
OVCAR-8 = system: OVCAR-8
K562 = system: K562
UO-31 = system: UO-31
NCI-H460 = system: NCI-H460
SR = system: SR
MDA-N = system: MDA-N
U-251 = system: U-251
SK-MEL-28 = system: SK-MEL-28

SMILES	GI50 (SF-539)	GI50 (786-0)	GI50 (DU-145)	GI50 (OVCAR-4)	GI50 (MCF7)	GI50 (HOP-92)	GI50 (CAKI-1)	GI50 (UACC-62)	GI50 (HCC 2998)	GI50 (A549)	GI50 (UACC-257)	GI50 (CCRF-CEM)	GI50 (OVCAR-8)	GI50 (K562)	GI50 (UO-31)	GI50 (NCI-H460)	GI50 (SR)	GI50 (MDA-N)	GI50 (U-251)	GI50 (SK-MEL-28)
N#CCc1nc(-c2cc3ccccc3oc2=O)cs1	83.9 µM (inactive)	> 100 µM (inactive)	> 100 µM (inactive)	44.1 µM (inactive)	54.8 µM (inactive)	41.7 µM (inactive)	> 100 µM (inactive)	18.7 µM (inactive)	> 100 µM (inactive)	> 100 µM (inactive)	27.1 µM (inactive)	30.5 µM (inactive)	63.2 µM (inactive)	45.8 µM (inactive)	40.4 µM (inactive)	75.2 µM (inactive)	43.6 µM (inactive)	37.2 µM (inactive)	> 100 µM (inactive)	37.3 µM (inactive)
C/C(=N\Nc1nc2cc(C)ccc2s1)c1ccccn1	1.39 µM (inactive)	0.519 µM (active)	0.652 µM (active)	0.324 µM (active)	0.119 µM (active)	0.282 µM (active)	0.0562 µM (active)	0.596 µM (active)	1.29 µM (inactive)	0.798 µM (active)	0.5 µM (active)	0.149 µM (active)	0.18 µM (active)	0.0948 µM (active)	0.117 µM (active)	0.69 µM (active)	0.232 µM (active)	1.68 µM (inactive)	0.946 µM (active)	1.61 µM (inactive)
Cc1ccc(/N=N/c2c(C)nn(C(=O)CC(=O)Nc3ccccc3)c2C)cc1C	> 100 µM (inactive)	> 100 µM (inactive)	> 100 µM (inactive)	> 100 µM (inactive)	> 100 µM (inactive)	> 100 µM (inactive)	> 100 µM (inactive)	> 100 µM (inactive)	> 100 µM (inactive)	> 100 µM (inactive)	> 10 µM (inactive)	> 100 µM (inactive)	> 100 µM (inactive)		> 100 µM (inactive)	> 100 µM (inactive)	> 100 µM (inactive)	> 100 µM (inactive)	> 100 µM (inactive)	> 100 µM (inactive)
COC(=O)CCCC(=O)/C(=N\Nc1ccc(Cl)cc1)Nc1c(Cl)cccc1Cl	> 100 µM (inactive)	86.1 µM (inactive)	52.4 µM (inactive)	46.3 µM (inactive)	53.8 µM (inactive)	45 µM (inactive)	> 100 µM (inactive)	60 µM (inactive)	58.7 µM (inactive)	24.3 µM (inactive)	59 µM (inactive)	26.2 µM (inactive)	> 100 µM (inactive)	48.1 µM (inactive)	34.4 µM (inactive)	26.7 µM (inactive)	20.5 µM (inactive)	> 84.5 µM (inactive)	55.5 µM (inactive)	> 89.3 µM (inactive)
COc1ccc(OC)c(C2CCCc3c2cnc2nc(N)nc(N)c32)c1 (stereo not drawn)	< 0.0119 µM (active)	< 0.01 µM (active)	0.0132 µM (active)	> 100 µM (inactive)	< 0.01 µM (active)	0.863 µM (active)	0.0982 µM (active)	< 0.01 µM (active)	< 0.01 µM (active)	< 0.01 µM (active)	< 0.01 µM (active)		< 0.01 µM (active)	< 0.01 µM (active)		< 0.01 µM (active)	< 0.01 µM (active)	< 0.01 µM (active)		> 100 µM (inactive)
COc1ccc(C2c3cc4c(c(OC)c3CC3OCC(=O)C32)OCO4)cc1OC (stereo not drawn)	0.0246 µM (active)	0.0348 µM (active)	0.0218 µM (active)	0.0364 µM (active)	0.0575 µM (active)	25 µM (inactive)	0.0405 µM (active)	0.0531 µM (active)	0.129 µM (active)	0.0647 µM (active)		0.0371 µM (active)	0.0601 µM (active)	0.0504 µM (active)	0.074 µM (active)	0.0625 µM (active)	< 0.01 µM (active)	< 0.01 µM (active)	0.0504 µM (active)	31.9 µM (inactive)
COc1ccc2c3c(ccc2c1)NC(C(=O)O)CC3 (stereo not drawn)	80.4 µM (inactive)	97.7 µM (inactive)	> 100 µM (inactive)	65.3 µM (inactive)	36.4 µM (inactive)	79.4 µM (inactive)	88.3 µM (inactive)	40.5 µM (inactive)	44.3 µM (inactive)	62.1 µM (inactive)	> 100 µM (inactive)		64.4 µM (inactive)	35.2 µM (inactive)	47 µM (inactive)	49.8 µM (inactive)	18.5 µM (inactive)	57.8 µM (inactive)	38.2 µM (inactive)	67.8 µM (inactive)
O=C1c2c(ccc3c2CCC3)CC12Cc1cc3c(cc1C2)CCC3	> 100 µM (inactive)	> 100 µM (inactive)	> 100 µM (inactive)	> 100 µM (inactive)	> 100 µM (inactive)	> 100 µM (inactive)	> 100 µM (inactive)		> 100 µM (inactive)	> 100 µM (inactive)	> 100 µM (inactive)	> 100 µM (inactive)	> 100 µM (inactive)	> 100 µM (inactive)	> 100 µM (inactive)	> 100 µM (inactive)	> 100 µM (inactive)	> 100 µM (inactive)	70.3 µM (inactive)	> 100 µM (inactive)
